Results: the NIST ThermoML archive (doi:10.1016/j.jct.2007.06.009)

Key:
[1] = refractive index (Na D-line) (dimensionless); conditions: 303.15 K; 101.33 kPa; Liquid; Standard Abbe refractometry
[2] = 303.15 K; 101 kPa; Liquid
[3] = refractive index (Na D-line) (dimensionless); xn = mol fraction of the nth substance listed; conditions: 303.15 K, 101 kPa, Liquid, Standard Abbe refractometry
[4] = excess molar enthalpy (molar enthalpy of mixing); xn = mol fraction of the nth substance listed; conditions: 303 K, 101 kPa, Liquid
[5] = xn = mol fraction of the nth substance listed; conditions: 303.15 K, 101 kPa, Liquid

CCCCO [butan-1-ol]
Conditions	mass density [kg/m3]	refractive index	viscosity [mPa·s]
[1]	–	1.39479	–
[2]	802.2	–	2.195

CCCCO [butan-1-ol] + CCC(C)=O
x1 = 1
Conditions	excess molar enthalpy [kJ/mol]	mass density [kg/m3]	refractive index	viscosity [mPa·s]
[3]	–	–	1.39479	–
[4]	0	–	–	–
[5]	–	802.2	–	2.195

CCC(C)=O [butanone] + CCCCO
Conditions	excess molar enthalpy [kJ/mol]	mass density [kg/m3]	refractive index	viscosity [mPa·s]
[3], x2 = 0	–	–	1.37383	–
[3], x2 = 0.0765	–	–	1.37557	–
[3], x2 = 0.1392	–	–	1.37702	–
[3], x2 = 0.2097	–	–	1.37867	–
[3], x2 = 0.2775	–	–	1.3802	–
[3], x2 = 0.3488	–	–	1.3819	–
[3], x2 = 0.442	–	–	1.38402	–
[3], x2 = 0.4933	–	–	1.38514	–
[3], x2 = 0.5008	–	–	1.38533	–
[3], x2 = 0.5577	–	–	1.3866	–
[3], x2 = 0.6404	–	–	1.38835	–
[3], x2 = 0.6474	–	–	1.38848	–
[3], x2 = 0.7257	–	–	1.39011	–
[3], x2 = 0.7944	–	–	1.39145	–
[3], x2 = 0.8562	–	–	1.3926	–
[3], x2 = 0.9307	–	–	1.39387	–
[4], x2 = 0	0	–	–	–
[4], x2 = 0.134	0.643	–	–	–
[4], x2 = 0.193	0.919	–	–	–
[4], x2 = 0.289	1.18	–	–	–
[4], x2 = 0.35	1.36	–	–	–
[4], x2 = 0.425	1.47	–	–	–
[4], x2 = 0.514	1.47	–	–	–
[4], x2 = 0.619	1.41	–	–	–
[4], x2 = 0.7	1.23	–	–	–
[4], x2 = 0.769	1.12	–	–	–
[4], x2 = 0.82	0.849	–	–	–
[4], x2 = 0.911	0.591	–	–	–
[5], x2 = 0	–	794.5	–	0.347
[5], x2 = 0.0704	–	–	–	0.364
[5], x2 = 0.0765	–	795	–	–
[5], x2 = 0.1392	–	795.4	–	–
[5], x2 = 0.1468	–	–	–	0.388
[5], x2 = 0.2097	–	795.9	–	–
[5], x2 = 0.2163	–	–	–	0.421
[5], x2 = 0.2775	–	796.4	–	–
[5], x2 = 0.2818	–	–	–	0.455
[5], x2 = 0.3429	–	–	–	0.479
[5], x2 = 0.3488	–	796.9	–	–
[5], x2 = 0.4244	–	–	–	0.553
[5], x2 = 0.442	–	797.6	–	–
[5], x2 = 0.4933	–	798	–	–
[5], x2 = 0.4988	–	–	–	0.615
[5], x2 = 0.5008	–	798.1	–	–
[5], x2 = 0.5577	–	798.5	–	–
[5], x2 = 0.5755	–	–	–	0.704
[5], x2 = 0.6404	–	799.2	–	–
[5], x2 = 0.6474	–	799.3	–	0.813
[5], x2 = 0.7105	–	–	–	0.925
[5], x2 = 0.7257	–	799.9	–	–
[5], x2 = 0.7799	–	–	–	1.091
[5], x2 = 0.7944	–	800.5	–	–
[5], x2 = 0.8562	–	801	–	–
[5], x2 = 0.8596	–	–	–	1.342
[5], x2 = 0.9263	–	–	–	1.645
[5], x2 = 0.9307	–	801.6	–	–

CCC(C)=O [butanone]
Conditions	mass density [kg/m3]	refractive index	viscosity [mPa·s]
[1]	–	1.37383	–
[2]	794.5	–	0.347
